Test results: patent publication US20070161592A1, “Method of treating fear” (priority 2005, published 2007)

Legend:
NR2B = experiment: Western blot of NR2B in ACC after siRNA electroporation; assay type: in vivo, mouse; settings: four days after electroporation
Protocol: Equal amounts of protein from the ACC and hippocampus were separated and electrotransferred onto PDVF membranes (Invitrogen), which were probed with anti-NR2A, anti-NR2B (Chemicon), and anti-PSD-95 (ABR) and with β-actin (Sigma) as a loading control. The membranes were incubated with horseradish peroxidase-conjugated secondary antibodies (anti-mouse IgG for PSD-95 and anti-rabbit IgG for the other primary antibodies), and bands were visualized using an ECL system (Perkin Elmer). Synaptosomal membrane fractions (LP1) were prepared as previously described (Dunah and Standaert, 2001) and solubilized using 1% SDS in TEVP buffer: 10 mM Tris-HCl, pH 7.4, 1 mM EDTA, 1 mM EGTA, 1× protease inhibitor cocktail (Sigma), and 1× phosphatase inhibitor cocktail 1 and 2 (Sigma). […] Results are expressed as means±SEM. […]
To inhibit NR2B expression specifically in the prefrontal cortex, including the ACC, siRNA was bilaterally delivered against NR2B with a reporter plasmid encoding EGFP by microelectroporation (Wei et al., 2003) (FIG. 8A). […] The expression levels of other NMDAR subunits (NR2A and NR1) and AMPA receptor subunit GluR1 were measured, and actin was used as a control in the ACCs of NR2B siRNA and control siRNA electroporated mice.

NR1/NR2B = settings: cited from earlier work
[1] = test system: pyramidal neurons in layer II/III of ACC slices; experiment: LTP induced by pairing training, whole-cell patch-clamp recordings in ACC slices; assay type: cell-based, mouse; settings: for effect on LTP induced by pairing training: FIG. 3
Protocol: Experiments were performed in a recording chamber on the stage of an Axioskop 2FS microscope with infrared DIC optics for visualizing whole-cell patch clamp recordings. EPSCs were recorded from layer II-III neurons using an Axon 200B amplifier (Axon Instruments, CA) and stimulations were delivered using a bipolar tungsten stimulating electrode placed in layer V of the ACC. In hippocampal slices, EPSCs were evoked by stimulating the Schaffer collateral-commissural pathway. EPSCs were induced by repetitive stimulations at 0.02 Hz and neurons were voltage clamped at −70 mV. […] The first protocol involved paired presynaptic 80 pulses at 2 Hz with postsynaptic depolarization at +30 mV (referred to as pairing training). The second involved paired 3 presynaptic stimuli that caused 3 EPSPs (10 ms ahead) with 3 postsynaptic APs at 30 Hz, paired 15 times every 5 s (named as EPSPs-APs protocol). The third involved theta-burst stimulation (5 trains of burst with 4 pulses at 100 Hz, at 200 ms interval; repeated 4 times at intervals of 10 s; named as TBS). The NMDAR-mediated component of EPSCs was pharmacologically isolated in Mg^2+-free ACSF containing: CNQX (20 μM), glycine (1 μM) and picrotoxin (100 μM). […] Neurons were voltage clamped at −60 mV and NMDARs-mediated EPSCs were evoked at 0.05 Hz. Picrotoxin (100 μM) was always present to block GABAA receptor-mediated inhibitory synaptic currents. The access resistance was 15-30 MΩ and was monitored throughout the experiment. […] Results are expressed as means±SEM. Statistical comparisons were performed using the Student t-test.
Whole-cell patch-clamp recordings were conducted in visually identified pyramidal neurons in layer II/III of ACC slices. Pyramidal neurons were identified by injecting depolarized currents into neurons to induce action potentials. […] Pyramidal neurons were also identified based on the pyramid shape of their somata by putting Lucifer yellow into the intracellular solution (FIG. 1A).

Row | Compound | NR2B expression compared to control siRNA electroporated control (NR2B) | IC50 (NR1/NR2B) | synaptic responses after pairing training (LTP), % of baseline ([1]; 0.3 μM) | effect on LTP induced by pairing training ([1]; 0.3 μM) | synaptic responses after pairing training (LTP), % of baseline ([1]; 3 μM) | effect on LTP induced by pairing training ([1]; 3 μM)
1 | NR2B siRNA: siRNA corresponding to NR2B, sense 5′-GGAUGAGUCCUCCAUGUUCtt-3′, antisense 5′-GAACAUGGAGGACUCAUCCtt-3′, Silencer Pre-designed siRNA ID #61879, Ambion (sense GGAUGAGUCCUCCAUGUUCTT; antisense GAACAUGGAGGACUCAUCCTT; chemistry not given here) | 64.8±4.6% |  |  |  |  | 
2 | C[C@@H](CN1CCC(Cc2ccccc2)CC1)[C@@H](O)c1ccc(O)cc1 [Ro25-6981] |  | 9 nM | 132.8±7.4% | partially depressed | 126.8±7.5% | partially depressed
